From US10010541B2, “Modulation of tissue transglutaminase activation in disease” (The Board of Trustees of the Leland Stanford Junior …, priority 2014, dated 2018)

What was measured:
TG2 = biological target: T1, TG2 (Homo sapiens, UniProt P21980); assay: glutamate dehydrogenase-coupled deamidation assay, substrate Cbz-Gln-Gly; assay type: biochemical; conditions: irreversible inhibition model, full progress curves
T1 sequence (P21980 1-687): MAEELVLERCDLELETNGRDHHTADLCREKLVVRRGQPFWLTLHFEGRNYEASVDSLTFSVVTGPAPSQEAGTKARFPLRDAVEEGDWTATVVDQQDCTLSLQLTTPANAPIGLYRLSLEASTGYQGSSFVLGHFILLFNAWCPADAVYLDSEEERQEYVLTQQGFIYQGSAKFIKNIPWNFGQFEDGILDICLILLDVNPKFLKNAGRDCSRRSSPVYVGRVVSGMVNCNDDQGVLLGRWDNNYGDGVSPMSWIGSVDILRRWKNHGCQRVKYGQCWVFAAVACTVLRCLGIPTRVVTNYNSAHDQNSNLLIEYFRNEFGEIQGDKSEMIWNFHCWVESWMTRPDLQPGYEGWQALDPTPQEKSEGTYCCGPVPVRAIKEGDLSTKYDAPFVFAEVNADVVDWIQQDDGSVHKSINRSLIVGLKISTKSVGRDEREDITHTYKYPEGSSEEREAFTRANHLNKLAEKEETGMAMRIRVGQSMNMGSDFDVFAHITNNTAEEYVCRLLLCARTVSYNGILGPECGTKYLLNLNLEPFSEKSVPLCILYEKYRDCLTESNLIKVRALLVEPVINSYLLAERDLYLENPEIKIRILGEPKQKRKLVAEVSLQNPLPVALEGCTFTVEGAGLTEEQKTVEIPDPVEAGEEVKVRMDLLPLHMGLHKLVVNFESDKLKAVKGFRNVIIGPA

TG1 = biological target: T2, TG1 (Homo sapiens, UniProt P22735); assay: glutamate dehydrogenase-coupled deamidation assay, substrate Cbz-Gln-Ser; assay type: biochemical; conditions: irreversible inhibition model, full progress curves
T2 sequence (P22735 1-817): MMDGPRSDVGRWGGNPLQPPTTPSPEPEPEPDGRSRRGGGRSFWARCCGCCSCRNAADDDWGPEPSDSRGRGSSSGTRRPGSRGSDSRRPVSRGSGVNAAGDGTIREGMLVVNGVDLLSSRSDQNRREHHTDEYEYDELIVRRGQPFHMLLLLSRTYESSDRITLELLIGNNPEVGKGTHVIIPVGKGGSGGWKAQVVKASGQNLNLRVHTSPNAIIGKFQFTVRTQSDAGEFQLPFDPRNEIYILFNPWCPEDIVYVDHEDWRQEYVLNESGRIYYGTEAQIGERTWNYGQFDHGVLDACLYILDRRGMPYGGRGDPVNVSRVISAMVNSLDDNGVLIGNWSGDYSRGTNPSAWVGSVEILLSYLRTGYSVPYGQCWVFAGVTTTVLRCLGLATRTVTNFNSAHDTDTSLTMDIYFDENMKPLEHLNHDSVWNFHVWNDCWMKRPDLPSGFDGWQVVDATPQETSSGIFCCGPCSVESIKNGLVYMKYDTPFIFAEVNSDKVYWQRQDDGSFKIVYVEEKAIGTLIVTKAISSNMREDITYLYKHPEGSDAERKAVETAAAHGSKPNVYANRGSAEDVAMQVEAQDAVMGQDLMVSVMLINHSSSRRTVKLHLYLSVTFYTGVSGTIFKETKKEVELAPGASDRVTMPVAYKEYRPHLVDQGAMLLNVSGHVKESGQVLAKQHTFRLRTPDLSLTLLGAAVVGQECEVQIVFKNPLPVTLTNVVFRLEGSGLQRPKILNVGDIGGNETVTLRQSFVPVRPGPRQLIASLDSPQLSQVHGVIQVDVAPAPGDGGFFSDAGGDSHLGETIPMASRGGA

Row | Structure (SMILES) | kinh/Ki TG2 (TG2) [M⁻¹ s⁻¹] | kinh/Ki TG1 (TG1) [M⁻¹ s⁻¹]
1 | O=C(NC[C@@H]1CC(Br)=NO1)[C@@H]1C[C@@H](c2cccc(O)c2)CN1C(=O)OCc1cnc2ccccc2c1 [Compound 11, (2S,4S)-quinolin-3-ylmethyl 2-((((S)-3-bromo-4,5-dihydroisoxazol-5-yl)methyl)carbamoyl)-4-(3-hydroxyphenyl)pyrrolidine-1-carboxylate] | 870 | 645
2 | O=C(NC[C@@H]1CC(Br)=NO1)[C@@H]1C[C@H](c2ccccc2)CN1C(=O)OCc1cnc2ccccc2c1 [Compound 9, (2S,4R)-quinolin-3-ylmethyl 2-((((S)-3-bromo-4,5-dihydroisoxazol-5-yl)methyl)carbamoyl)-4-phenylpyrrolidine-1-carboxylate] | 295 | 287
3 | O=C(NC[C@@H]1CC(Br)=NO1)[C@@H]1C[C@@H](c2ccccc2O)CN1C(=O)OCc1cnc2ccccc2c1 [Compound 10, (2S,4S)-quinolin-3-ylmethyl 2-((((S)-3-bromo-4,5-dihydroisoxazol-5-yl)methyl)carbamoyl)-4-(2-hydroxyphenyl)pyrrolidine-1-carboxylate] | 563 | 492
4 | O=C(NC[C@@H]1CC(Br)=NO1)[C@@H]1C[C@@H](NC(=O)C2(C(=O)O)CCC2)CN1C(=O)OCc1cnc2ccccc2c1 [Compound 7, 1-(((3R,5S)-5-((((S)-3-bromo-4,5-dihydroisoxazol-5-yl)methyl)carbamoyl)-1-((quinolin-3-ylmethoxy)carbonyl)pyrrolidin-3-yl)carbamoyl)cyclobutanecarboxylic acid] | 230 | 96.7
5 | O=C(NC[C@@H]1CC(Br)=NO1)[C@@H]1C[C@@H](c2ccc(Cl)cc2)CN1C(=O)OCc1cnc2ccccc2c1 [Compound 14, (2S,4S)-quinolin-3-ylmethyl 2-((((S)-3-bromo-4,5-dihydroisoxazol-5-yl)methyl)carbamoyl)-4-(4-chlorophenyl)pyrrolidine-1-carboxylate] | 200 | 257
6 | O=C(N[C@@H]1C[C@@H](C(=O)NC[C@@H]2CC(Br)=NO2)N(C(=O)OCc2cnc3ccccc3c2)C1)c1ccc(O)cc1 [Compound 4, (2S,4R)-quinolin-3-ylmethyl 2-((((S)-3-bromo-4,5-dihydroisoxazol-5-yl)methyl)carbamoyl)-4-(4-hydroxybenzamido)pyrrolidine-1-carboxylate] | 940 | 522
7 | O=C(NC[C@@H]1CC(Br)=NO1)[C@@H]1C[C@@H](c2c[nH]c3ccc(F)cc23)CN1C(=O)OCc1cnc2ccccc2c1 [Compound 15, (2S,4S)-quinolin-3-ylmethyl 2-((((S)-3-bromo-4,5-dihydroisoxazol-5-yl)methyl)carbamoyl)-4-(5-fluoro-1H-indol-3-yl)pyrrolidine-1-carboxylate] | 307 | 800
8 | O=C(N[C@@H]1C[C@@H](C(=O)NC[C@@H]2CC(Br)=NO2)N(C(=O)OCc2cnc3ccccc3c2)C1)c1cnccn1 [Compound 6, (2S,4R)-quinolin-3-ylmethyl 2-((((S)-3-bromo-4,5-dihydroisoxazol-5-yl)methyl)carbamoyl)-4-(pyrazine-2-carboxamido)pyrrolidine-1-carboxylate] | 262 | 200
9 | O=C(N[C@@H]1C[C@@H](C(=O)NC[C@@H]2CC(Br)=NO2)N(C(=O)OCc2cnc3ccccc3c2)C1)c1ccccc1 [Compound 1, (2S,4R)-quinolin-3-ylmethyl 4-benzamido-2-((((S)-3-bromo-4,5-dihydroisoxazol-5-yl)methyl)carbamoyl)pyrrolidine-1-carboxylate] | 430 | 410
10 | O=C(N[C@@H]1C[C@@H](C(=O)NC[C@@H]2CC(Br)=NO2)N(C(=O)OCc2cnc3ccccc3c2)C1)c1cccc(O)c1 [Compound 3, (2S,4R)-quinolin-3-ylmethyl 2-((((S)-3-bromo-4,5-dihydroisoxazol-5-yl)methyl)carbamoyl)-4-(3-hydroxybenzamido)pyrrolidine-1-carboxylate] | 603 | 302
11 | O=C(N[C@@H]1C[C@@H](C(=O)NC[C@@H]2CC(Br)=NO2)N(C(=O)OCc2cnc3ccccc3c2)C1)c1ccccc1O [Compound 2, (2S,4R)-quinolin-3-ylmethyl 2-((((S)-3-bromo-4,5-dihydroisoxazol-5-yl)methyl)carbamoyl)-4-(2-hydroxybenzamido)pyrrolidine-1-carboxylate] | 618 | 452
12 | O=C(NC[C@@H]1CC(Br)=NO1)[C@@H]1C[C@@H](c2cccc(Cl)c2)CN1C(=O)OCc1cnc2ccccc2c1 [Compound 13, (2S,4S)-quinolin-3-ylmethyl 2-((((S)-3-bromo-4,5-dihydroisoxazol-5-yl)methyl)carbamoyl)-4-(3-chlorophenyl)pyrrolidine-1-carboxylate] | 422 | 695
13 | O=C(NC[C@@H]1CC(Br)=NO1)[C@@H]1C[C@@H](c2ccc(O)cc2)CN1C(=O)OCc1cnc2ccccc2c1 [Compound 12, (2S,4S)-quinolin-3-ylmethyl 2-((((S)-3-bromo-4,5-dihydroisoxazol-5-yl)methyl)carbamoyl)-4-(4-hydroxyphenyl)pyrrolidine-1-carboxylate] | 1520 | 1510
14 | O=C(NC[C@@H]1CC(Br)=NO1)[C@@H]1C[C@@H](c2ccccc2)CN1C(=O)OCc1cnc2ccccc2c1 [Compound 8, (2S,4S)-quinolin-3-ylmethyl 2-((((S)-3-bromo-4,5-dihydroisoxazol-5-yl)methyl)carbamoyl)-4-phenylpyrrolidine-1-carboxylate] | 810 | 1100
